IC50 data for 14 molecules are collected here from US11053239B2, “Compounds as BLC-2-selective apoptosis-inducing agents” (Fochon Pharmaceuticals, Ltd., priority 2017, dated 2021).

One assay deals with DOHH2 cells. Briefly: Cell proliferation assay (MTS), DOHH2 cells. As to conditions: Homo sapiens, DOHH-2, 120 h, DOHH2 (DSMZ ACC 47) cell proliferation, 5000 cells/well, 120 h, MTS; mechanism-based readout of Bcl-2 inhibition; read-out: DOHH2 IC50. It counts as cell-based. The text has this:
(§1) MTS testing kit was purchased from Promega. The RPMI-1640, Fetal bovine serum and Penicillin-Streptomycin were purchased from Gibco. Dimethyl sulfoxide (DMSO) was purchased from Sigma.
(§2) To investigate whether a compound is able to inhibit the activity of Bcl-2 in cells, a mechanism-based assay using DOHH2 (DSMZ No.® ACC 47) and RS4; 11 (ATCC® CRL-1873™) cell was developed. In this assay, inhibition of Bcl-2 was detected by the inhibition of DOHH2 and RS4; 11 cells proliferation. DOHH2 and RS4; 11 cells were cultured in culture flasks to 40-80% confluence in RPMI-1640 plus 10% fetal bovine serum. Cells were collected and plated onto 96-well plates at desired cell density (DOHH2: 5000 cells/well; RS4; 11: 30000 cells/well). Plates were incubated overnight at 37° C., with 5% CO2 to adhere. Compounds were added to the plates, and the final compound concentrations were 10000, 3333, 1111, […], 124, 41, 14, 4.6 and 1.5 nM. Plates plated with DOHH2 or RS4; 11 cells were placed at 37° C., with 5% CO2 for 120 h (DOHH2) or 72 h (RS4; 11) respectively. 20 μl MTS/100 μl medium mixture solution were added to each well and incubate the plates for exactly 2 hours. The reaction was stopped by adding 25 μl 10% SDS per well. Measure absorbance at 490 nm and 650 nm (reference wavelength). ICso was calculated using GraphPad Prism 5.0.

Another assay concerns RS4; 11 cells. Briefly: Cell proliferation assay (MTS), RS4; 11 cells. It counts as cell-based. As to conditions: Homo sapiens, RS4-11, 72 h, RS4; 11 (ATCC CRL-1873) cell proliferation, 30000 cells/well, 72 h, MTS; mechanism-based readout of Bcl-2 inhibition; read-out: RS4; 11 IC50.
Source text: as §1, §2

On to `CCS(=O)(CC)=NC1CC(CNc2ccc(S(=O)(=O)NC(=O)c3ccc(N4CCN(CC5=C(c6ccc(Cl)cc6)CC(C)(C)CC5)CC4)cc3Oc3cnc4[nH]ccc4c3)cc2[N+](=O)[O-])C1` (stereo not drawn) [Example 60, 2-((1H-pyrrolo[2,3-b]pyridin-5-yl)oxy)-4-(4-((4′-chloro-5,5-dimethyl-3,4,5,6-tetrahydro-[1,1′-biphenyl]-2-yl)methyl)piperazin-1-yl)-N-((4-(((3-((diethyl(oxo)-λ^6-sulfanylidene)amino)cyclobutyl)methyl)amino)-3-nitrophenyl)sulfonyl)benzamide], for which the IC50 in the assay on DOHH2 cells was found to be 49 nM; in the assay on RS4; 11 cells it was 21 nM.
Turning to `CC(Nc1ccc(S(=O)(=O)NC(=O)c2ccc(N3CCN(CC4=C(c5ccc(Cl)cc5)CC(C)(C)CC4)CC3)cc2Oc2cnc3[nH]ccc3c2)cc1[N+](=O)[O-])C1CCS(=O)(=NC#N)CC1` (stereo not drawn) [Example 32, 2-((1H-pyrrolo[2,3-b]pyridin-5-yl)oxy)-4-(4-((4′-chloro-5,5-dimethyl-3,4,5,6-tetrahydro-[1,1′-biphenyl]-2-yl)methyl)piperazin-1-yl)-N-((4-((1-(1-(cyanoimino)-1-oxidohexahydro-1λ^6-thiopyran-4-yl)ethyl)amino)-3-nitrophenyl)sulfonyl)benzamide], the IC50 with RS4; 11 cells came to 438 nM.
The same measure, in the same setting: for `CC1(C)CCC(CN2CCN(c3ccc(C(=O)NS(=O)(=O)c4ccc(NCCN5CCS(=N)(=O)CC5)c([N+](=O)[O-])c4)c(Oc4cnc5[nH]ccc5c4)c3)CC2)=C(c2ccc(Cl)cc2)C1` [Example 46, 2-((1H-pyrrolo[2,3-b]pyridin-5-yl)oxy)-4-(4-((4′-chloro-5,5-dimethyl-3,4,5,6-tetrahydro-[1,1′-biphenyl]-2-yl)methyl)piperazin-1-yl)-N-((4-((2-(1-imino-1-oxido-1λ^6-thiomorpholino)ethyl)amino)-3-nitrophenyl)sulfonyl) benzamide] the value was 155 nM; for `CC1(C)CCC(CN2CCN(c3ccc(C(=O)NS(=O)(=O)c4ccc(NCCN5CCS(=O)(=NC#N)CC5)c([N+](=O)[O-])c4)c(Oc4cnc5[nH]ccc5c4)c3)CC2)=C(c2ccc(Cl)cc2)C1` [Example 36, 2-((1H-pyrrolo[2,3-b]pyridin-5-yl)oxy)-4-(4-((4′-chloro-5,5-dimethyl-3,4,5,6-tetrahydro-[1,1′-biphenyl]-2-yl)methyl)piperazin-1-yl)-N-((4-((2-(1-(cyanoimino)-1-oxido-1λ^6-thiomorpholino)ethyl)amino)-3-nitrophenyl)sulfonyl) benzamide], 232 nM.
In the case of `CC(Nc1ccc(S(=O)(=O)NC(=O)c2ccc(N3CCN(CC4=C(c5ccc(Cl)cc5)CC(C)(C)CC4)CC3)cc2Oc2cnc3[nH]ccc3c2)cc1[N+](=O)[O-])C1CCS(=O)(=NC2CC2)CC1` (stereo not drawn) [Example 62, 2-((1H-pyrrolo[2,3-b]pyridin-5-yl)oxy)-4-(4-((4′-chloro-5,5-dimethyl-3,4,5,6-tetrahydro-[1,1′-biphenyl]-2-yl)methyl)piperazin-1-yl)-N-((4-((1-(1-(cyclopropylimino)-1-oxidohexahydro-1λ^6-thiopyran-4-yl)ethyl)amino)-3-nitrophenyl)sulfonyl) benzamide], the IC50 in the assay with RS4; 11 cells is 160 nM.
On the same count and under the same terms, the figure for `CN=S1(=O)CCN(CCNc2ccc(S(=O)(=O)NC(=O)c3ccc(N4CCN(CC5=C(c6ccc(Cl)cc6)CC(C)(C)CC5)CC4)cc3Oc3cnc4[nH]ccc4c3)cc2[N+](=O)[O-])CC1` [Example 33, 2-((1H-pyrrolo[2,3-b]pyridin-5-yl)oxy)-4-(4-((4′-chloro-5,5-dimethyl-3,4,5,6-tetrahydro-[1,1′-biphenyl]-2-yl)methyl)piperazin-1-yl)-N-((4-((2-(1-(methylimino)-1-oxido-1λ^6-thiomorpholino)ethyl)amino)-3-nitrophenyl)sulfonyl) benzamide] is 101 nM; for `CC(CNc1ccc(S(=O)(=O)NC(=O)c2ccc(N3CCN(CC4=C(c5ccc(Cl)cc5)CC(C)(C)CC4)CC3)cc2Oc2cnc3[nH]ccc3c2)cc1[N+](=O)[O-])N1CCP(C)(=O)CC1` (stereo not drawn) [Example 10, 2-((1H-pyrrolo[2,3-b]pyridin-5-yl)oxy)-4-(4-((4′-chloro-5,5-dimethyl-3,4,5,6-tetrahydro-[1,1′-biphenyl]-2-yl)methyl)piperazin-1-yl)-N-((4-((2-(4-methyl-4-oxido-1,4-azaphosphinan-1-yl)propyl)amino)-3-nitrophenyl)sulfonyl)benzamide] it is 133 nM; for `CN=S1(=O)CCC(CNc2ccc(S(=O)(=O)NC(=O)c3ccc(N4CCN(CC5=C(c6ccc(Cl)cc6)CC(C)(C)CC5)CC4)cc3Oc3cnc4[nH]ccc4c3)cc2[N+](=O)[O-])CC1` (stereo not drawn) [Example 29, 2-((1H-pyrrolo[2,3-b]pyridin-5-yl)oxy)-4-(4-((4′-chloro-5,5-dimethyl-3,4,5,6-tetrahydro-[1,1′-biphenyl]-2-yl)methyl)piperazin-1-yl)-N-((4-(((1-(methylimino)-1-oxidohexahydro-1λ^6-thiopyran-4-yl)methyl)amino)-3-nitrophenyl)sulfonyl)benzamide] it is 323 nM.
Still for that read-out and setting: for `CC1(C)CCC(CN2CCN(c3ccc(C(=O)NS(=O)(=O)c4ccc(NCC5CCS(=N)(=O)CC5)c([N+](=O)[O-])c4)c(Oc4cnc5[nH]ccc5c4)c3)CC2)=C(c2ccc(Cl)cc2)C1` (stereo not drawn) [Example 28, 2-((1H-pyrrolo[2,3-b]pyridin-5-yl)oxy)-4-(4-((4′-chloro-5,5-dimethyl-3,4,5,6-tetrahydro-[1,1′-biphenyl]-2-yl)methyl)piperazin-1-yl)-N-((4-(((1-imino-1-oxidohexahydro-1λ^6-thiopyran-4-yl)methyl)amino)-3-nitrophenyl)sulfonyl) benzamide] the value was 122 nM; for `CC1(C)CCC(CN2CCN(c3ccc(C(=O)NS(=O)(=O)c4ccc(NCC(N5CCP(C)(=O)CC5)C(F)(F)F)c([N+](=O)[O-])c4)c(Oc4cnc5[nH]ccc5c4)c3)CC2)=C(c2ccc(Cl)cc2)C1` (stereo not drawn) [Example 14, 2-((1H-pyrrolo[2,3-b]pyridin-5-yl)oxy)-4-(4-((4′-chloro-5,5-dimethyl-3,4,5,6-tetrahydro-[1,1′-biphenyl]-2-yl)methyl)piperazin-1-yl)-N-((3-nitro-4-((3,3,3-trifluoro-2-(4-methyl-4-oxido-1,4-azaphosphinan-1-yl)propyl)amino)phenyl)sulfonyl) benzamide], 520 nM.
The same measure, in the same setting: the figure for `CC1(C)CCC(CN2CCN(c3ccc(C(=O)NS(=O)(=O)c4ccc(NCCN5CCS(=O)(=NS(C)(=O)=O)CC5)c([N+](=O)[O-])c4)c(Oc4cnc5[nH]ccc5c4)c3)CC2)=C(c2ccc(Cl)cc2)C1` [Example 71, 2-((1H-pyrrolo[2,3-b]pyridin-5-yl)oxy)-4-(4-((4′-chloro-5,5-dimethyl-3,4,5,6-tetrahydro-[1,1′-biphenyl]-2-yl)methyl)piperazin-1-yl)-N-((4-((2-(1-((methylsulfonyl)imino)-1-oxido-1λ^6-thiomorpholino)ethyl)amino)-3-nitrophenyl)sulfonyl)benzamide] is 258 nM; for `CC(=O)N=S1(=O)CCC(CNc2ccc(S(=O)(=O)NC(=O)c3ccc(N4CCN(CC5=C(c6ccc(Cl)cc6)CC(C)(C)CC5)CC4)cc3Oc3cnc4[nH]ccc4c3)cc2[N+](=O)[O-])CC1` (stereo not drawn) [Example 31, 2-((1H-pyrrolo[2,3-b]pyridin-5-yl)oxy)-N-((4-(((1-(acetylimino)-1-oxidohexahydro-1λ^6-thiopyran-4-yl)methyl)amino)-3-nitrophenyl)sulfonyl)-4-(4-((4′-chloro-5,5-dimethyl-3,4,5,6-tetrahydro-[1,1′-biphenyl]-2-yl)methyl)piperazin-1-yl)benzamide] it is 135 nM.
As for `C[C@@H](CN1CCS(=O)(=NC#N)CC1)Nc1ccc(S(=O)(=O)NC(=O)c2ccc(N3CCN(CC4=C(c5ccc(Cl)cc5)CC(C)(C)CC4)CC3)cc2Oc2cnc3[nH]ccc3c2)cc1S(=O)(=O)C(F)(F)F` [Example 48, (S)-2-((1H-pyrrolo[2,3-b]pyridin-5-yl)oxy)-4-(4-((4′-chloro-5,5-dimethyl-3,4,5,6-tetrahydro-[1,1′-biphenyl]-2-yl)methyl)piperazin-1-yl)-N-((4-((1-(1-(cyanoimino)-1-oxido-1λ^6-thiomorpholino)propan-2-yl)amino)-3-((trifluoromethyl)sulfonyl)phenyl)sulfonyl)benzamide], in the assay with RS4; 11 cells, the IC50 was 173 nM.
Same read-out and setting: for `CC1(C)CCC(CN2CCN(c3ccc(C(=O)NS(=O)(=O)c4ccc(NCCN5CCS(=O)(=NC(=O)C6CC6)CC5)c([N+](=O)[O-])c4)c(Oc4cnc5[nH]ccc5c4)c3)CC2)=C(c2ccc(Cl)cc2)C1` [Example 69, 2-((1H-pyrrolo[2,3-b]pyridin-5-yl)oxy)-4-(4-((4′-chloro-5,5-dimethyl-3,4,5,6-tetrahydro-[1,1′-biphenyl]-2-yl)methyl)piperazin-1-yl)-N-((4-((2-(1-((cyclopropanecarbonyl)imino)-1-oxido-1λ^6-thiomorpholino)ethyl)amino)-3-nitrophenyl)sulfonyl) benzamide] the value was 165 nM.
